Data reported in ChEMBL document CHEMBL1150333, “Isolation and antimalarial activity of new morphinan alkaloids on Plasmodium yoelii liver stage” (Bioorg Med Chem, 2008).
Active and inactive are the calls of the source. The rule behind the calls is not given here.

Tests used:
Plasmodium yoelii yoelii [1] = assay: Antimalarial activity against Plasmodium yoelii 265 sporozoites in primary mice (Mus musculus) hepatocytes after 48 hrs; assay type: functional, organism-based; conditions: 265 BY, Hepatocyte
[2] = Cytotoxicity against primary mouse hepatocytes after 48 hrs by neutral red assay; assay type: cell-based, Hepatocyte; conditions: read-out: TC50
Plasmodium yoelii yoelii [3] = assay: Antimalarial activity against Plasmodium yoelii 265 BY liver stage sporozoites in primary mice (Mus musculus) hepatocytes at 38.6 uM after 48 hrs; assay type: functional; conditions: Hepatocyte
[4] = Selectivity index, ratio of TC50 for primary mice (Mus musculus) hepatocytes to IC50 for Plasmodium yoelii yoelii 265 BY liver stage sporozoites; parameters: species or system Hepatocyte
Plasmodium yoelii yoelii [5] = assay: Antimalarial activity against Plasmodium yoelii 265 BY liver stage sporozoites in primary mice (Mus musculus) hepatocytes at 7.1 uM after 48 hrs; assay type: functional, organism-based; conditions: Hepatocyte

## COC1=C2[C@H]3NCC[C@]2(C[C@H](O)[C@@H]1O)c1c(ccc(OC)c1O)[C@@H]3O[C@@H]1O[C@H](CO)[C@@H](O)[C@H](O)[C@H]1O
Plasmodium yoelii yoelii [1]
  IC50: > 390 µM
[2]
  CC50 at 48 h: > 390 µM

## COc1cc(NC(C)CCCN)c2ncccc2c1 (stereo unspecified) [PRIMAQUINE]
Plasmodium yoelii yoelii [1]
  IC50: 0.64 µM
Plasmodium yoelii yoelii [3]
  inhibition in vivo at 38.6 µM: 80%
[2]
  CC50 at 48 h: 70.5 µM
[4]
  Ratio: 110

## COC1=C2[C@@H]3Cc4ccc(OC)c(O)c4[C@]2(CCN3)C[C@H](O)[C@@H]1O [SINOCOCULINE]
Plasmodium yoelii yoelii [1]
  IC50: 4.5 µM
[2]
  CC50 at 48 h: 62.2 µM
[4]
  Ratio: 13.8

## COC1=C2[C@H]3NCC[C@]2(C[C@H](O)[C@@H]1O)c1c(ccc(OC)c1O)[C@H]3O [TAZOPSINE]
Plasmodium yoelii yoelii [1]
  IC50: 3.1 µM
[2]
  CC50 at 48 h: 43.7 µM
[4]
  Ratio: 14
Plasmodium yoelii yoelii [5]
  Activity: Active

## COC1=C2[C@H]3NCC[C@]2(C[C@H](O)[C@@H]1O)c1c(ccc(OC)c1O)[C@@H]3O
Plasmodium yoelii yoelii [1]
  IC50: 16.1 µM
[2]
  CC50 at 48 h: 388 µM
[4]
  Ratio: 24.1
